Results: the Kinase Knowledgebase extract (Sharma et al. 2016)
Several values for one entry are separate records, joined by “and”; a condition that tells them apart may be missing. Equal values may be shown once.

These molecules were tested against PIK3CD (Human) (UniProt O00329) (assay: Enzyme Assay).
PIK3CD (Human), sequence (O00329 whole entry, looked up): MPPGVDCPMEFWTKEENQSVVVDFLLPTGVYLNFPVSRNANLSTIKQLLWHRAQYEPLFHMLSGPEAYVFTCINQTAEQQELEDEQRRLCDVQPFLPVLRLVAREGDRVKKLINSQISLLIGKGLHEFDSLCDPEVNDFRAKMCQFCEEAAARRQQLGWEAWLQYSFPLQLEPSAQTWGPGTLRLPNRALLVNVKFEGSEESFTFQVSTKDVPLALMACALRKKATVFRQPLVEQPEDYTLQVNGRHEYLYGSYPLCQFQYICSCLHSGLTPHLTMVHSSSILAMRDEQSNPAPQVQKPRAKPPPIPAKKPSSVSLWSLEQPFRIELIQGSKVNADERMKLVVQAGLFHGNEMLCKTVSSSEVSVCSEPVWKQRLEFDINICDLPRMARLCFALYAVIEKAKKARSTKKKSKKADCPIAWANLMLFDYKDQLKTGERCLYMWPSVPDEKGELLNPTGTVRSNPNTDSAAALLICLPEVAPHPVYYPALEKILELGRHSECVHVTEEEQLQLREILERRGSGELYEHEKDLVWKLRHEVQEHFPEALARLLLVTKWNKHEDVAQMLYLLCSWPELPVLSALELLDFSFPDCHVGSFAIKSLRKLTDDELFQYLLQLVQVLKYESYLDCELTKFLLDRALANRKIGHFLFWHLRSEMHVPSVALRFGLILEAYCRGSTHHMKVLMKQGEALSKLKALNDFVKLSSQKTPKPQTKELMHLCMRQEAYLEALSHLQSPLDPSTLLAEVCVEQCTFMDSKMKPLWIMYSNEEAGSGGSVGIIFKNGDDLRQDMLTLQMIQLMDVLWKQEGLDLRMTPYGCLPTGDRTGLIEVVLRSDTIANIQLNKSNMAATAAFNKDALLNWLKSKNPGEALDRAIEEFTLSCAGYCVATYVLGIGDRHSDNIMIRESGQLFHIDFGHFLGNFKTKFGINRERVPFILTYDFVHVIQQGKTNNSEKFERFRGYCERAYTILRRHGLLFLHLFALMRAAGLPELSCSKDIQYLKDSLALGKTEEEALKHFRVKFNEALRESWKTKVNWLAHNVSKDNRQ
For CCn1ncc(-c2nc3c(O[C@H]4CCN(C(=O)c5cnn6ccccc56)C4)ncnc3n2C)c1C, the IC50 was 130 nM.
Molecule CCn1ncc(-c2nc3c(O[C@H]4CCN(c5nccc6sccc56)C4)ncnc3n2C)c1C has an IC50 of 10 nM.
In the case of CCn1c(-c2cnc(OC)c(F)c2)nc2c(O[C@H]3CCN(C(=O)C4CC4)C3)ncnc21, the IC50 is reported as less than 1 nM.
In the case of CCn1ncc(-c2nc3c(O[C@H]4CCN(C(=O)c5ccccn5)C4)ncnc3n2C)c1C, the IC50 is reported as 27 nM.
CCn1c(C(=O)NCC2CC2)nc2c(O[C@H]3CCN(C(=O)OC(C)(C)C)C3)ncnc21 was tested, and the IC50 was 150 nM.
For CCn1c(-c2cnc(C(F)(F)F)nc2)nc2c(O[C@H]3CCN(C(=O)C4CC4)C3)ncnc21, the IC50 was 18 nM.
In the case of Cn1c(-c2ccc(-n3cccn3)cc2)nc2c(O[C@H]3CCN(C(=O)OC(C)(C)C)C3)ncnc21, the IC50 is reported as 30 nM.
CCC(=O)N1CC[C@H](Oc2ncnc3c2nc(-c2cc(O)cc(F)c2)n3C)C1 gave an IC50 of 3.8 nM.
Work on CCC(=O)N1CC[C@H](Oc2ncnc3c2nc(-c2cncc(N)c2)n3C)C1 yielded an IC50 of 5.7 nM.
For CCn1c(-c2cnc(OC)c(Cl)c2)nc2c(O[C@H]3CCN(C(=O)C4CC4)C3)ncnc21, the IC50 was less than 1 nM.
In the case of CCn1c(-c2ccc(OC)cn2)nc2c(O[C@H]3CCN(C(=O)C4CC4)C3)ncnc21, the IC50 is reported as 240 nM.
With COC1CC(c2nc3c(O[C@H]4CCN(C(=O)OC(C)(C)C)C4)ncnc3n2C)C1 (some centres undefined) the IC50 was 2100 nM.
CCn1c(-c2cnc(C)nc2)nc2c(O[C@H]3CCN(c4nccs4)C3)ncnc21 was tested, and the IC50 was 44 nM.
Molecule CCC(=O)N1CC[C@H](Oc2ncnc3c2nc(-c2cnn(CC)c2C)n3C2CC2)C1 has an IC50 of 160 nM.
CCn1ncc(-c2nc3c(O[C@H]4CCN(C(=O)c5conc5C)C4)ncnc3n2C)c1C gave an IC50 of 14 nM.
In the case of CCn1c(N(C)CC(C)C)nc2c(O[C@H]3CCN(C(=O)OC(C)(C)C)C3)ncnc21, the IC50 is reported as 150 nM.
In the case of CCC(=O)N1CC[C@H](Oc2ncnc3c2nc(-c2cnn(CC)c2C)n3C)C1, the IC50 is reported as 12 nM.
With CC[C@@H]1CN(C(=O)C2CC2)C[C@H]1Oc1ncnc2c1nc(-c1cnc(C)nc1)n2CC.CC[C@H]1CN(C(=O)C2CC2)C[C@@H]1Oc1ncnc2c1nc(-c1cnc(C)nc1)n2CC the IC50 was 6.1 nM and 20 nM.
With CCOC(=O)N1CC[C@H](Oc2ncnc3c2nc(-c2cnc(C)nc2)n3CC)C1 the IC50 was 18 nM.
Molecule CCn1ncc(-c2nc3c(O[C@H]4CCN(C(=O)c5cc(C(F)(F)F)nn5C)C4)ncnc3n2C)c1C has an IC50 of 26 nM.
For CCn1ncc(-c2nc3c(O[C@H]4CCN(C(=O)OC)C4)ncnc3n2C)c1C, the IC50 was 12 nM.
For CCn1c(-c2cnc(C)nc2)nc2c(OC3CN(C(=O)C4CC4)CC3C)ncnc21 (centres undefined), the IC50 was 2.9 nM.
Work on CCn1ncc(-c2nc3c(OC4CCN(C(=O)OC(C)(C)C)CC4)ncnc3n2C)c1C yielded an IC50 of 610 nM.
CCn1ncc(-c2nc3c(O[C@H]4CCN(C(=O)c5ocnc5C)C4)ncnc3n2C)c1C showed an IC50 of 15 nM.
CCn1c(-c2cnc(C)nc2)nc2c(O[C@H]3CCN(c4cnccn4)C3)ncnc21 gave an IC50 of 32 nM.
Work on CCn1ncc(-c2nc3c(O[C@H]4CCN(c5ncnc6sc(C)c(C)c56)C4)ncnc3n2C)c1C yielded an IC50 of 19 nM.
In the case of CCn1c(-c2cnc(OC)c(F)c2)nc2c(O[C@H]3CCN(C(=O)c4ccn(C)n4)C3)ncnc21, the IC50 is reported as less than 1 nM.
CCC(=O)N1CC[C@H](Oc2ncnc3c2nc(-c2cnc(OC)c(C#N)c2)n3C)C1 showed an IC50 of 8.4 nM.
For CCn1ncc(-c2nc3c(O[C@H]4CCN(C(=O)c5cc(C)on5)C4)ncnc3n2C)c1C, the IC50 was 12 nM.
In the case of CCC(=O)N1CC[C@H](Oc2ncnc3[nH]c(-c4cnn(CC)c4C)nc23)C1, the IC50 is reported as 24 nM.
CCn1ncc(-c2nc3c(O[C@H]4CCN(C(=O)c5ccncc5)C4)ncnc3n2C)c1C gave an IC50 of 13 nM.
For CCn1c(-c2cnc(C)nc2)nc2c(O[C@H]3CCN(C(=O)N4CCCCC4)C3)ncnc21, the IC50 was 21 nM.
CCn1c(-c2cnc(C)nc2)nc2c(O[C@H]3CCN(S(=O)(=O)CC)C3)ncnc21 gave an IC50 of 170 nM.
CCn1ncc(-c2nc3c(O[C@H]4CCN(C(=O)c5oc(C)nc5C)C4)ncnc3n2C)c1C showed an IC50 of 3.7 nM.
For CCn1c(N2CCC(S(C)(=O)=O)C2)nc2c(O[C@H]3CCN(C(=O)OC(C)(C)C)C3)ncnc21 (some centres undefined), the IC50 was 700 nM.
In the case of CCn1ncc(-c2nc3c(O[C@H]4CCN(C(=O)c5ccn[nH]5)C4)ncnc3n2C)c1C, the IC50 is reported as 3 nM.
CCn1ncc(-c2nc3c(O[C@H]4CCN(C(=O)c5nc(C(C)(C)O)no5)C4)ncnc3n2C)c1C was tested, and the IC50 was 110 nM.
CCn1c(-c2cnc(C)nc2)nc2c(O[C@H]3CCN(C(=O)N4CCC(F)(F)C4)C3)ncnc21 showed an IC50 of 14 nM.
In the case of CCC(=O)N1CC[C@H](Oc2ncnc3c2nc(-c2cnc(C)nc2)n3CC)C1, the IC50 is reported as 13 nM.
Work on CCC(=O)N1CC[C@H](Oc2ncnc3c2nc(-c2ccc(C(F)(F)F)nc2)n3C)C1 yielded an IC50 of 99 nM.
CCn1c(-c2cnc(C)nc2)nc2c(O[C@H]3CCN(C(=O)OC(C)(C)C)[C@@H]3C)ncnc21 showed an IC50 of 4 nM.
Molecule CCn1c(-c2cnc(C)nc2C)nc2c(O[C@H]3CCN(C(=O)C4CC4)C3)ncnc21 has an IC50 of 44 nM.
CCn1c(-c2cnc(C)nc2)nc2c(O[C@H]3CCN(c4ccc5cnoc5c4)C3)ncnc21 showed an IC50 of 11 nM.
CCn1c(-c2cnc(C)nc2)nc2c(O[C@H]3CCN(C(=O)C4CC4C)C3)ncnc21 (some centres undefined) was tested, and the IC50 was 1.5 nM.
Molecule CCn1ncc(-c2nc3c(O[C@H]4CCN(S(=O)(=O)c5ccc(-c6ccccc6)cc5)C4)ncnc3n2C)c1C has an IC50 of 4600 nM.
With CCn1c(-c2cnc(C)nc2)nc2c(O[C@H]3CCN(c4ccccn4)C3)ncnc21 the IC50 was 1.7 nM.
CCn1c(-c2cnc(C)nc2)nc2c(O[C@H]3CCN(c4cccc(F)c4)C3)ncnc21 gave an IC50 of 2.2 nM.
Work on CCC(=O)N1CC[C@H](Oc2ncnc3c2nc(-c2cnn(CC)c2C)n3CC(F)F)C1 yielded an IC50 of 3.1 nM.
For CCn1ncc(-c2nc3c(O[C@H]4CCN(C(=O)OCC(C)C)C4)ncnc3n2C)c1C, the IC50 was 17 nM.
Molecule CCn1c(-c2cnc(OC)nc2)nc2c(O[C@H]3CCN(C(=O)C4CC4)C3)ncnc21 has an IC50 of 6.3 nM.
With CCn1c(-c2cnc(C)nc2)nc2c(O[C@H]3CCN(C(=O)C4CCOCC4)C3)ncnc21 the IC50 was 8.5 nM.
For CCn1c(-c2cnc(C)nc2)nc2c(O[C@@H]3CN(C(=O)OC(C)(C)C)C[C@H]3F)ncnc21.CCn1c(-c2cnc(C)nc2)nc2c(O[C@H]3CN(C(=O)OC(C)(C)C)C[C@@H]3F)ncnc21, the IC50 was 3.3 nM.
With CCn1c(-c2cnc(C)nc2)nc2c(OC3(C)CCN(C(=O)C4CC4)C3)ncnc21 (centres undefined) the IC50 was 8.7 nM.
In the case of CCn1ncc(-c2nc3c(OC4CCN(C(=O)CC5CCOCC5)C4)ncnc3n2C)c1C (centres undefined), the IC50 is reported as 31 nM.
With CCn1ncc(-c2nc3c(O[C@H]4CCN(c5nccn6cnnc56)C4)ncnc3n2C)c1C the IC50 was 30 nM.
In the case of CCn1ncc(-c2nc3c(O[C@H]4CCN(C(=O)c5ccnc(C)c5)C4)ncnc3n2C)c1C, the IC50 is reported as 25 nM.
Cc1n[nH]c2ncc(-c3nc4c(O[C@H]5CCN(C(=O)OC(C)(C)C)C5)ncnc4n3C)cc12 showed an IC50 of 4 nM.
CC[C@@H]1CN(C(=O)OCc2ccccc2)C[C@H]1Oc1ncnc2c1nc(-c1cnc(C)nc1)n2CC.CC[C@H]1CN(C(=O)OCc2ccccc2)C[C@@H]1Oc1ncnc2c1nc(-c1cnc(C)nc1)n2CC gave an IC50 of 90 nM.
CCn1ncc(-c2nc3c(O[C@H]4CCN(C(=O)C5(C)CCOCC5)C4)ncnc3n2C)c1C gave an IC50 of 28 nM.
CCn1ncc(-c2nc3c(O[C@H]4CCN(C(=O)c5ccnn5C)C4)ncnc3n2C)c1C gave an IC50 of 22 nM.
CCn1ncc(-c2nc3c(O[C@H]4CCN(C(=O)N[C@H](C)c5ccccc5)C4)ncnc3n2C)c1C gave an IC50 of 630 nM.
Molecule CCn1ncc(-c2nc3c(O[C@H]4CCN(C(=O)c5[nH]ncc5C)C4)ncnc3n2C)c1C has an IC50 of 3.6 nM.
For CCn1c(-c2cnc(C)nc2)nc2c(O[C@H]3CCN(C(=O)N4CCC(CO)C4)C3)ncnc21 (some centres undefined), the IC50 was 9.5 nM.
Work on CCn1ncc(-c2nc3c(O[C@H]4CCN(C(=O)c5oncc5C)C4)ncnc3n2C)c1C yielded an IC50 of 5.1 nM.
